In the NIST ThermoML archive (doi:10.1021/je050162g):
Numbers after ± are expanded uncertainties.

What was measured:
[1] = xn = mol fraction of the nth substance listed; details: 101 kPa, Liquid, x1 = 1; for viscosity: Capillary tube (Ostwald / Ubbelohde) method; for excess molar volume: Direct dilatometry; for speed of sound: Linear variable-path acoustic interferometer
[2] = Liquid; for viscosity / speed of sound: 101 kPa; for viscosity: Capillary tube (Ostwald / Ubbelohde) method; for speed of sound: Linear variable-path acoustic interferometer; for mass density: 101.33 kPa, Pycnometric method

| Compound | viscosity ([1]; 303.15 K) | excess molar volume ([1]; 303.15 K) | speed of sound ([1]; 303.15 K) | viscosity ([1]; 308.15 K) | excess molar volume ([1]; 308.15 K) | speed of sound ([1]; 308.15 K) | viscosity ([1]; 313.15 K) | excess molar volume ([1]; 313.15 K) | speed of sound ([1]; 313.15 K) | viscosity ([2]; 303.15 K) | speed of sound ([2]; 303.15 K) | mass density ([2]; 303.15 K) | viscosity ([2]; 308.15 K) | speed of sound ([2]; 308.15 K) | mass density ([2]; 308.15 K) | viscosity ([2]; 313.15 K) | speed of sound ([2]; 313.15 K) | mass density ([2]; 313.15 K) | vapor or sublimation pressure ([2]; 410 K) | vapor or sublimation pressure ([2]; 344.68 K) |
| --- | --- | --- | --- | --- | --- | --- | --- | --- | --- | --- | --- | --- | --- | --- | --- | --- | --- | --- | --- | --- |
| Cc1ccc(C)cc1 [1,4-dimethylbenzene] + C=COC(C)=O | 0.566 ± 0.016 mPa·s | 0 ± 6e-09 m3/mol | 1283.7 ± 5.2 m/s | 0.537 ± 0.015 mPa·s | 0 ± 6e-09 m3/mol | 1271 ± 5.2 m/s | 0.513 ± 0.015 mPa·s | 0 ± 6e-09 m3/mol | 1260 ± 5.2 m/s |  |  |  |  |  |  |  |  |  |  |  |
| Cc1ccc(C)cc1 [1,4-dimethylbenzene] |  |  |  |  |  |  |  |  |  | 0.566 ± 0.016 mPa·s | 1283.7 ± 5.2 m/s | 852.3 ± 2.3 kg/m3 | 0.537 ± 0.015 mPa·s | 1271 ± 5.2 m/s | 847.9 ± 2.3 kg/m3 | 0.513 ± 0.015 mPa·s | 1260 ± 5.2 m/s | 843.6 ± 2.3 kg/m3 | 97.3 ± 3 kPa |  |
| C=COC(C)=O [vinyl acetate] |  |  |  |  |  |  |  |  |  | 0.384 ± 0.012 mPa·s | 1095.9 ± 5.2 m/s | 918 ± 6.8 kg/m3 | 0.361 ± 0.011 mPa·s | 1072.5 ± 5.1 m/s | 904.2 ± 6.7 kg/m3 | 0.332 ± 0.011 mPa·s | 1055.7 ± 5.1 m/s | 891.8 ± 6.7 kg/m3 |  | 97.3 ± 3 kPa |
